Experiment in all cases: inhibition of tumour cell growth, NCI panel, 48 h
The test system of test [1] is LOX IMVI melanoma.
The subject of test [2] is A498 renal.
For test [3], the system named is SN12C renal.
Test [4] concerns SK-MEL-28 melanoma.
Test [5] has as its system IGROV1 ovarian.
Test [6] concerns HCT-116 colon.
Test [7] concerns COLO 205 colon.
Test [8] has as its system A549 NSCLC.
The subject of test [9] is HL-60(TB) leukemia.
Test [10] concerns UO-31 renal.

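How tested: cells in 96-well plates exposed to compound for 48 hours at five concentrations. The concentration for 50% growth inhibition is given as GI50. TGI denotes the concentration required for complete inhibition of growth.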 Where only a bound is given, the exact number is not on record here.

Take `CCOC(=S)SCC(=O)O`: the TGI in [1], in [2], in test [3], in [4], in test [5] and in test [6] was greater than 100 µM throughout. For the same molecule, the TGI in [7] was greater than 100 µM; in test [8] it was greater than 100 µM; in test [9], 5.74 µM; in [10], greater than 100 µM.

Regarding `NC(=O)C(=Cn1c(=S)[nH]c2ccc([N+](=O)[O-])cc21)C(N)=O`, the TGI in test [1], in test [2], in test [3], in test [4], in test [5] and in test [6] was greater than 100 µM throughout. For the same molecule, the TGI in test [7], in test [8], in test [9] and in test [10] was greater than 100 µM throughout.

In the case of `COc1ccc(-c2cn[nH]c2-c2cc(OC)c(OC)c(OC)c2)cc1`, the GI50 in test [1] was 0.123 µM; in [3], 0.193 µM; in test [4], 0.0376 µM; in [5], 0.0363 µM; in test [6] it was 0.0342 µM; in [7] it was 0.0197 µM. The GI50 in test [8] is 0.0346 µM; in [9], 0.0249 µM; in [10], 0.0572 µM. The TGI turned out to be 20.7 µM in test [1]; 0.0715 µM in test [2]; 47.3 µM in [3]; 32 µM in test [4]; 19.9 µM in test [5]; 11.4 µM in test [6]. Besides, the TGI is 0.0482 µM in test [7], greater than 38.7 µM in test [8], 0.0671 µM in test [9] and 15.2 µM in test [10].

Take `CC1(C)OC1COc1c2occc2cc2ccc(=O)oc12` (centres undefined): the TGI in test [1], in test [2], in test [3], in test [4], in test [5] and in test [6] was greater than 100 µM throughout. Further, the TGI in test [7], in test [8], in test [9] and in test [10] was greater than 100 µM in each case.

For the molecule `Cc1ccc(Oc2ccc(C)cc2N)cc1`, the TGI in [1], in test [2], in [3], in test [4], in [5] and in test [6] was greater than 100 µM throughout. The TGI in test [7], in [8], in [9] and in test [10] was greater than 100 µM throughout.

Regarding `C[C@]12CCC3c4ccc(O)cc4CCC3C1CC[C@@]2(O)CNC(=O)/C=C/c1ccc(O)c(O)c1` (some centres undefined), the GI50 in test [1] was 2.37 µM; in test [2], 14.9 µM; in test [3], 7.54 µM; in [4], 24.8 µM; in test [5], 2.47 µM; in test [6], 3.34 µM. Moreover, the GI50 in test [7] was 3.55 µM; in test [8], 2.63 µM; in test [9] it was 3.99 µM; in [10], 3.5 µM. Moreover, the TGI in test [1] amounted to 6.52 µM; in test [2], 29.8 µM; in test [3], 20.6 µM; in test [4], 59 µM; in [5] it was 7.26 µM; in [6], 11.2 µM. For the same molecule, the TGI in test [7] came out at 10.4 µM; in [8], 9.68 µM; in test [9], 20.1 µM; in test [10] it was 15.7 µM.

Turning to `CCCOc1cc2ccccc2cc1C(=O)Nc1nc(N)c2c(ccc3nccc32)[nH]1`, the GI50 in [1] is 0.0511 µM; in test [2], 0.0312 µM; in test [3] it was 1.42 µM; in [4], 1.01 µM; in test [5], 0.519 µM; in test [6] it was 0.0461 µM. For the same molecule, the GI50 in test [7] is 0.0445 µM; in test [8] it was 0.0993 µM; in test [9] it was 0.0307 µM; in test [10], 0.703 µM. The TGI amounted to 2.02 µM in [1]; 0.622 µM in [2]; 3.22 µM in test [3]; 2.36 µM in [4]; 2.89 µM in test [5]; 1.22 µM in test [6]. The TGI in [7] came out at 0.481 µM; in [8], 1.86 µM; in test [9], 0.229 µM; in test [10] it was 2.4 µM.

`COCCOc1ccc(-c2nc3ccc(-c4nc5ccc(N6CCN(C)CC6)cc5[nH]4)cc3[nH]2)cc1`: the GI50 in test [1] was 0.851 µM; in test [2], 1.21 µM; in [3] it was 1.42 µM; in [4], 0.478 µM; in test [5] it was 1.71 µM; in test [6] it was 0.358 µM. Moreover, the GI50 in test [7] was 0.371 µM; in test [8] it was 8.05 µM; in test [9] it was 1.62 µM; in test [10] it was 29.4 µM. Also, the TGI was 2.83 µM in [1]; 3.39 µM in test [2]; 11.8 µM in test [3]; 2.21 µM in test [4]; 4.81 µM in test [5]; 2.46 µM in test [6]. In addition, the TGI was 3.05 µM in test [7], 35.2 µM in [8], 91.8 µM in test [9] and greater than 100 µM in test [10].

With `CN1CC[C@@H](NC(=O)Nc2ccc(C#N)cc2)C[C@@H]1c1nc2ccccc2[nH]1`, the GI50 was greater than 42.5 µM in test [1]; greater than 27.4 µM in test [2]; greater than 78.9 µM in [3]; greater than 100 µM in test [4]; greater than 100 µM in test [5]; greater than 87.1 µM in test [6]. Also, the GI50 was greater than 80.6 µM in test [7], greater than 100 µM in test [8], greater than 100 µM in [9] and greater than 78.1 µM in test [10]. In addition, the TGI was greater than 59.5 µM in [1]; greater than 65.7 µM in [2]; greater than 100 µM in [3]; greater than 100 µM in test [4]; greater than 100 µM in [5]; greater than 100 µM in [6]. Also, the TGI in test [7], in test [8], in test [9] and in [10] was greater than 100 µM each time.

`CC(C)=CCC(O)C1=CC(=O)c2c(O)ccc(O)c2C1=O` (centres undefined): the TGI in test [1] stood at 2.63 µM; in test [2] it was 4.08 µM; in test [3], 1.45 µM; in test [4] it was 2.86 µM; in test [5] it was 3.31 µM; in test [6] it was 2.6 µM. Moreover, the TGI in test [7] was determined as 0.357 µM; in test [8], 17.7 µM; in [9] it was 0.0659 µM; in [10], 2.93 µM.

The record behind these values is PubChem BioAssay (NCI).
